Columns and labels:
Assay in all cases: Sulforhodamine B cell growth inhibitory assay
Type in all cases: cell-based
[1] = system: MCF-7; settings: MCF-7 (FIG. 2C), 3 days
Procedure: (§1) Sulforhodamine B staining method was used for cell growth inhibitory assay. Each cell was plated on a 96 well plate (Nunc). The next day, compound X was serially diluted and added thereto. The cell lines used and the terms of incubation of the compound are indicated separately. To immobilize the cells, 25% glutaraldehyde solution (Wako, 50 μL) was added to the culture medium (200 μL) and the mixture was left standing at room temperature for 15 min.
(§2) The plate was then washed once with PBS (Invitrogen), 200 μL of PBS was added, 25 μL of 50% trichloroacetic acid (Wako) was added, and the mixture was left standing at 4° C. for 1 hr or longer. The plate was washed 5 times with tap water, redundant water was removed by slamming the plate against paper towels. A 1% (W/W) acetic acid solution (50 μL) containing 0.4% (w/v) Sulforhodamine B (SRB, Sigma) was added to each well and, 15 min later, the plate was washed 3 times with 1% acetic acid solution. The plate was thoroughly dried, 10 mM Tris solution was added, and the mixture was stirred well in a plate shaker, and the absorbance at 550 nm was measured (Bio-Rad, Benchmark Plus).

[2] = system: BT-474; settings: BT-474 (FIG. 2A), 5 days
Procedure: as §1, §2

[3] = system: SK-BR-3; settings: SK-BR-3 (FIG. 2B), 5 days
Procedure: as §1, §2

Structure (SMILES): CC(C)(O)CC(=O)NCCn1ccc2ncnc(Nc3ccc(Oc4cccc(C(F)(F)F)c4)c(Cl)c3)c21 [compound X, N-{2-[4-({3-chloro-4-[3-(trifluoromethyl)phenoxy]phenyl}amino)-5H-pyrrolo[3,2-d]pyrimidin-5-yl]ethyl}-3-hydroxy-3-methylbutanamide]
- sensitivity of cells to growth inhibition [1]: low-sensitive
- sensitivity of cells to growth inhibition [2]: high-sensitive
- sensitivity of cells to growth inhibition [3]: high-sensitive

— patent publication US7825127B2, “Method for treating cancer” (Takeda Pharmaceutical Company, Limited, priority 2006, dated 2010)
